The term ED50 denotes the dose that gives a 50% effect, or the effect in half of the subjects. The LD50 is the dose expected to kill half of the subjects tested.

Entries after “also recorded” stand apart in the source; their conditions may differ.

A short description of one series: animal or person. As for the experimental part:
The general effect of the proposed preparation was tested on white mice, rats and rabbits.

Series [1] is described as follows: Acute toxicity, single intraperitoneal administration, 48 hours (Litchfield and Wilcockson). Format: in vivo, white mice. As for the experimental part:
The acute toxicity of the proposed preparation was tested on white mice weighing 19 to 20 g, by single intraperitoneal administrations of 1.5- and 10-percent colloidal solutions of the anticonvulsant in a 0.5-percent solution of carboxymethyl cellulose. The animals were observed during 48 hours. In order to establish the median lethal dose (LD50), the experimental data was statistically processed using the Litchfield and Wilcockson techniques. Milontin and zarontin were analyzed in the same way.

The subject of a further series is Bacillus coli. Type of series: cell-based.
A short description of series [2]: Mutagenicity, threonine locus of Bacillus coli. Format: cell-based. The conditions noted are these: bacillus coli, 0.2-mole concentration. The protocol: (§1) The preparation was further studied with regard to the threonine locus of Bacillus coli at a 0.2-mole concentration; the object was subjected to treatment during 24 hours; the survival rate of the cells was between 42 and 91 percent.

The subject of series [3] is threonine locus of Bacillus coli. The series is described as follows: Mutagenicity, threonine locus of Bacillus coli. The conditions noted are these: 0.2-mole concentration, 24 hours. Format: cell-based. As for the experimental part: as §1

Procedure for Corazol convulsion test: The anticonvulsant action of the proposed preparation was tested on mice weighing 19 to 25 g and rats weighing 120 to 150 g by conducting maximum electroshock, corazol, strychnine, camphor, nicotine and arecoline tests.

Consider `CC(C)Oc1ccc(C2CC(=O)NC2=O)cc1` (stereo not drawn) [proposed preparation, α-/para-isopropoxyphenyl/succinimide], for which, in “animal or person” (Mus musculus, ip, read-out: least dose to produce a noticeable effect on the animals' behavior), the minimal effective dose stood at 200 mg/kg. In addition, the “effect on general state of the animals per os versus intraperitoneal” value in “animal or person” (per os, animals (mice, rats, rabbits)) is “not as marked as in the case of intraperitoneal administration”. In the series “animal or person” (white mice, intraperitoneal), the “dose inducing lying position and sleep” value is “more than 1,000 milligrams per kilogram of weight”. Moreover, in “Corazol convulsion test” (Mus musculus, read-out: ED50 (corazol)), the ED50 came to 86 mg/kg. Moreover, in the series “Corazol convulsion test” (corazol), the “protection index I=TD50/ED50, Corazol” value worked out at 8.38 and the “protection index PI (mean lethal dose / mean effective dose), Corazol” value is listed as 25. Moreover, in series [1] (compared with milontin and zarontin), the relative toxicity result was “the least toxic of all; also recorded: more than two times less toxic than milontin; also recorded: one and half times less toxic than zarontin”. Moreover, the LD50 in series [1] (intraperitoneal, white mice, P=0.05, 2880 min, listed as Preparation in accordance with invention) is on record as 2,150 (1,930 to 2,390) mg/kg. The molecule also displayed an LD50 at 48 h in series [1] (mouse, in vivo, ip, intraperitoneal, white mice, P=0.05) of 2150 mg/kg. Also, in the series on Bacillus coli, the mutagenous effect result is “no mutagenous effect”. Further, in series [2] (read-out: revertants relative to control (spontaneous mutation)), the fold induction at 24 h, 200000 µM came to 1.8. In series [2] (read-out: survival rate of the cells), the viability at 24 h, 200000 µM fell in the range of 42 to 91%. Moreover, in series [3], the genetic action entry is reported as “extremely weak genetic action” and the revertants induced entry is reported as “no more than 17 revertants”.

The values are drawn from US4188398A, “Method for treating epilepsy” (priority 1978, dated 1980).
